Experimental data published in article PMC5438989, “Protein Biochemistry and Expression Regulation of Cadmium/Zinc Pumping ATPases in the Hyperaccumulator Plants Arabidopsis halleri and Noccaea caerulescens” (Frontiers in Plant Science, 2017).

Molecular target: T1, NcHMA4 (=TcHMA4) (Noccaea caerulescens, UniProt Q69AX6)
T1 construct: 60-70 kD band on Western blot, so possibly processed; no added tag
T1 sequence (Q69AX6 1-1186): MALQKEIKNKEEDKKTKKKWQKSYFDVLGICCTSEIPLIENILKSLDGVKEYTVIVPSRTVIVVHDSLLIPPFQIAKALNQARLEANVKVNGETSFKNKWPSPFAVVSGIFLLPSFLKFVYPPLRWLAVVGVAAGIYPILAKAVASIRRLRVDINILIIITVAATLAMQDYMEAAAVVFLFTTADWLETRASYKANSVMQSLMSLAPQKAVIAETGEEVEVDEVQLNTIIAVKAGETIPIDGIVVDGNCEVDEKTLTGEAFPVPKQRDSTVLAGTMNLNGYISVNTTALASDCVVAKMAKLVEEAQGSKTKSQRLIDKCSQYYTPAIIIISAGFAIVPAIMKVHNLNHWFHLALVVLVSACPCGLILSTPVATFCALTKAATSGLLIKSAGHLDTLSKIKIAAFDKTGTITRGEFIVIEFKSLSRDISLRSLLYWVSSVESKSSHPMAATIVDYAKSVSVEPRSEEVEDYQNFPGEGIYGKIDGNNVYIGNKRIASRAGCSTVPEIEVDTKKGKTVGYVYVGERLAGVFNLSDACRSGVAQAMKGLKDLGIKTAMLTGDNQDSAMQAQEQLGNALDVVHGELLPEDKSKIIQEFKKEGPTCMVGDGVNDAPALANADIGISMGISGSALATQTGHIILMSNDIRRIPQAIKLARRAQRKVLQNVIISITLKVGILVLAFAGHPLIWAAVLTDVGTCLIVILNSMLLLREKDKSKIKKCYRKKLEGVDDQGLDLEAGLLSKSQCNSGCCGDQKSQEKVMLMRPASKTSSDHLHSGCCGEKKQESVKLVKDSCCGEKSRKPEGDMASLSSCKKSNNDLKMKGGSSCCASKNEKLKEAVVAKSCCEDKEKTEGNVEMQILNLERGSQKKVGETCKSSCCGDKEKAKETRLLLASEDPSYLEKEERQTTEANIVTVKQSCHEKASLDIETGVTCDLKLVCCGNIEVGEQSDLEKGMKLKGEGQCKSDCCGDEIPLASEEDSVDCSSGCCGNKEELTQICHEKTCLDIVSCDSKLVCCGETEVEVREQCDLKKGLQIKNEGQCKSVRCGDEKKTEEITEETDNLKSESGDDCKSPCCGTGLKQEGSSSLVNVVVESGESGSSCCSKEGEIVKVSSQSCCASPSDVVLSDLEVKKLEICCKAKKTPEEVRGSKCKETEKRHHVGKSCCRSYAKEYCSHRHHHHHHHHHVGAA
Assay: ATPase assay by phosphate release; F5 electrochromic dye fluorescence
Format: biochemical
Conditions: Cd2+ or Zn2+ activated; dye assay: 5 mM ATP, protein in phosphatidylcholine vesicles, 20 °C

## Nc1ncnc2c1ncn2[C@@H]1O[C@H](COP(=O)(O)OP(=O)(O)OP(=O)(O)O)[C@@H](O)[C@H]1O [ATP]
  ATPase assay by phosphate release; F5 electrochromic dye fluorescence: Addition of ATP caused dropping of fluorescence when added to an assay containing active enzyme
